Experiments:
rEgGPXL-4 = test system: T1, rEgGPXL-4; assay: NADPH oxidation at […] nm, thioredoxin/thioredoxin reductase coupled; type: biochemical, Euglena gracilis; details: 6 µM yeast Trx-2 as electron donor, 0.3 µM yeast Trx reductase, 0.2 mM NADPH, 20 mM HEPES-NaOH pH 7.5; t-BOOH up to 0.04 mM
T1 construct: gene EgGPXL-4; full-length ORF, 159 residues, no signal peptide, pCold-II 6xHis tag, E. coli BL21, TALON purified, about 18-20 kDa; plant-type GPX; cDNA 787 bp; printed Cys-64, Gln-66, Phe-67, Glu-71, Gly-100, Asn-126, Phe-127, Lys-129, Gly-136

rEgGPXL-2 = test system: T2, rEgGPXL-2; assay: as above; type: biochemical, Euglena gracilis; details: 6 µM yeast Trx-2 as electron donor, 0.3 µM yeast Trx reductase, 0.2 mM NADPH, 20 mM HEPES-NaOH pH 7.5; t-BOOH up to 0.04 mM
T2 construct: gene EgGPXL-2; full-length ORF, 173 residues, no signal peptide, pCold-II 6xHis tag, E. coli BL21, TALON purified, about 18-20 kDa; animal-type GPX, Cys-45 in place of Sec; cDNA 737 bp

CC(C)(C)OO [t-BOOH]
Km (rEgGPXL-4): 38.5 ± 1.6 µM
Km (rEgGPXL-2): 28.5 ± 3.1 µM

From article PMC11275057, “Biochemical and Functional Profiling of Thioredoxin-Dependent Cytosolic GPX-like Proteins in Euglena gracilis” (Biomolecules, 2024)
